In US4946852A, “4(R)-substituted 6(S)-phenoxymethyl-, 6(S)-β-phenylethyl- and 6(S)-β-styryl-tetrahydropyran-2-ones, a highly stereoselective process for their preparation, pharmaceutical products based on these compounds, and their use” (Hoechst Aktiengesellschaft, priority 1986, dated 1990):

Biological target: T1, HMG-CoA reductase (Rattus norvegicus, UniProt P51639)
T1 sequence (P51639 1-887): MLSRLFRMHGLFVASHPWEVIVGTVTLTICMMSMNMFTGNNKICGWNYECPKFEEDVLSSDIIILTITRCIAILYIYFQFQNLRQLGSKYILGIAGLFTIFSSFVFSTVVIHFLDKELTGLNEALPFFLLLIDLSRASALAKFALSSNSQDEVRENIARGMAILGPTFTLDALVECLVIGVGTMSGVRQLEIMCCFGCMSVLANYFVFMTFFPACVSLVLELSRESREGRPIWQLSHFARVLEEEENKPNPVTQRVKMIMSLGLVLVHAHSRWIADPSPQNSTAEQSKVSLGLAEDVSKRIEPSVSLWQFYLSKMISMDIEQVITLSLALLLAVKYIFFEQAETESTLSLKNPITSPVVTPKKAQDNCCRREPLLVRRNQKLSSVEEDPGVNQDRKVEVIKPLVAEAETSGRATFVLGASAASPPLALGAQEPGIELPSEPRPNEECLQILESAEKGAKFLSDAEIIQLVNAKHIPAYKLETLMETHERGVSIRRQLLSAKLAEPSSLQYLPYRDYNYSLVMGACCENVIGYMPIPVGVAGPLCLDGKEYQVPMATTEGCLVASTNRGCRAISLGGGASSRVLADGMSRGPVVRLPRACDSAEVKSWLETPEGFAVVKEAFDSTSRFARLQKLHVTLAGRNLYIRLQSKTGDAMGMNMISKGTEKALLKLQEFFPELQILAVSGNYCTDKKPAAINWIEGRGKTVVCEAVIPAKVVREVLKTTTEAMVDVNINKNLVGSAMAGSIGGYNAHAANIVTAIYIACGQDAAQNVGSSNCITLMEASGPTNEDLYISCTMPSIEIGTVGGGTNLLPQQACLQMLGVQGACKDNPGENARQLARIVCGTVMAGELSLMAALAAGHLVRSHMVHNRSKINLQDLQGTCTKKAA
Assay: Inhibition of HMG-CoA reductase activity on solubilized enzyme preparations from rat liver microsomes
Format: biochemical
Details: solubilized rat-liver microsomal enzyme; for IC50: molar concentration required for 50% inhibition, (S,R) 14C-HMG-CoA substrate, mean of 3 parallel samples

Row | Compound | IC50 | inhibition (at 10^-6) | inhibition (at 10^-7)
1 | Cc1cc(C)c(OC[C@@H](O)C[C@@H](O)CC(=O)O)c(CCCOc2ccc(F)cc2)c1 [reference compound] | 200 nM |  | 
2 | Cc1cc(C)c(OC[C@@H]2C[C@@H](SC[C@H](N)C(=O)O)CC(=O)O2)c(CCCOc2ccc(F)cc2)c1 [Ve, 6S-({[2-(4-Fluorophenoxy-3-propyl)]-4,6-dimethylphenoxy}methyl)-4R-[(R)-2-amino-3-mercaptyl-propionic acid]-3,4,5,6-tetrahydro-2H-pyran-2-one] |  | 37% | 24%
3 | Cc1cc(C)c(OC[C@@H]2C[C@@H](SCc3ccccc3)CC(=O)O2)c(CCCOc2ccc(F)cc2)c1 [Vc, 6S-({[2-(4-Fluorophenoxy-3-propyl)]-4,6-dimethylphenoxy}methyl)-4R-benzylmercapto-3,4,5,6-tetrahydro-2H-pyran-2-one] | ~100000 nM |  | 

More lines, now with the values ahead:

Row | IC50 | inhibition (at 10^-6) | inhibition (at 10^-7) | Compound
4 | 1000 nM |  |  | Cc1cc(C)c(OC[C@@H]2C[C@@H](SCCO)CC(=O)O2)c(CCCOc2ccc(F)cc2)c1 [Vd, 6S-({[2-(4-Fluorophenoxy-3-propyl)]-4,6-dimethylphenoxy}methyl)-4R-β-hydroxyethylmercapto-3,4,5,6-tetrahydro-2H-pyran-2-one]
5 | 300 nM |  |  | CC(=O)S[C@H]1CC(=O)O[C@H](COc2c(C)cc(C)cc2CCCOc2ccc(F)cc2)C1 [Va, 6S-({[2-(4-Fluorophenoxy-3-propyl)]-4,6-dimethylphenoxy}methyl)-4R-acetylmercapto-3,4,5,6-tetrahydro-2H-pyran-2-one]
6 | 1000 nM |  |  | Cc1cc(C)c(OC[C@@H]2C[C@@H](O)CC(=O)O2)c(CCCOc2ccc(F)cc2)c1 [A, 6(S)-{4,6-dimethyl-2-[3-(4-fluorophenoxy)propyl]phenoxymethyl}-3,4,5,6-tetrahydro-4(R)-hydroxy-2H-pyran-2-one, reference compound]
